From patent US11178868B2, “Alkynyl-substituted 3-phenylpyrrolidine-2,4-diones and use thereof as herbicides” (Bayer CropScience Aktiengesellschaft, priority 2015, dated 2021)

Columns and labels:
Assay type in all cases: in vivo
[1] = tested on: Echinochloa crus-galli; assay: Post-emergence herbicidal effect; settings: assessed visually after about 3 weeks
Procedure: (§1) Seeds of monocotyledonous and dicotyledonous weed and crop plants are laid out in sandy loam in wood-fibre pots, covered with soil and cultivated in a greenhouse under good growth conditions. 2 to 3 weeks after sowing, the test plants are treated at the one-leaf stage. The compounds according to the invention, formulated in the form of wettable powders (WP) or as emulsion concentrates (EC), are then sprayed as aqueous suspension or emulsion at a water application rate of 600 to 800 I/ha (converted) with the addition of 0.2% of wetting agent onto the green parts of the plants. After the test plants have been left to stand in the greenhouse under optimal growth conditions for about 3 weeks, the action of the preparations is assessed visually in comparison to untreated controls (herbicidal action in percent (%): 100% activity=the plants have died, 0% activity=like control plants).

[2] = tested on: Avena fatua; assay: Post-emergence herbicidal effect; settings: assessed visually after about 3 weeks
Procedure: as §1

[3] = tested on: Setaria viridis; assay: Post-emergence herbicidal effect; settings: assessed visually after about 3 weeks
Procedure: as §1

[4] = tested on: Lolium multiflorum; assay: Post-emergence herbicidal effect; settings: assessed visually after about 3 weeks
Procedure: as §1

[5] = tested on: Alopecurus myosuroides; assay: Post-emergence herbicidal effect; settings: assessed visually after about 3 weeks
Procedure: as §1

[6] = tested on: Echinochloa crus-galli; assay: Pre-emergence herbicidal effect; settings: scored visually after 3 weeks
Description: (§2) Seeds of monocotyledonous and dicotyledonous weed plants and crop plants are laid out in wood-fibre pots in sandy loam and covered with soil. The compounds according to the invention formulated in the form of wettable powders (WP) or as emulsion concentrates (EC) are then applied as aqueous suspension or emulsion at a water application rate of 600 to 800 I/ha (converted) with the addition of 0.2% wetting agent to the surface of the covering soil. After the treatment, the pots are placed in a greenhouse and kept under good growth conditions for the trial plants. The damage to the test plants is scored visually after a test period of 3 weeks by comparison with untreated controls (herbicidal activity in percent (%): 100% activity=the plants have died, 0% activity=like control plants).

[7] = tested on: Avena fatua; assay: Pre-emergence herbicidal effect; settings: scored visually after 3 weeks
Description: as §2

[8] = tested on: Cyperus esculentus; assay: Pre-emergence herbicidal effect; settings: 320 g a.i./ha, scored visually after 3 weeks
Description: as §2

[9] = tested on: Setaria viridis; assay: Pre-emergence herbicidal effect; settings: scored visually after 3 weeks
Description: as §2

[10] = tested on: Lolium multiflorum; assay: Pre-emergence herbicidal effect; settings: scored visually after 3 weeks
Description: as §2

[11] = tested on: Alopecurus myosuroides; assay: Pre-emergence herbicidal effect; settings: scored visually after 3 weeks
Description: as §2

[12] = tested on: Polygonum convolvulus; assay: Post-emergence herbicidal effect; settings: 80 g a.i./ha, assessed visually after about 3 weeks
Procedure: as §1

[13] = tested on: Amaranthus retroflexus; assay: Post-emergence herbicidal effect; settings: assessed visually after about 3 weeks
Procedure: as §1

Compound | Herbicidal effect against [%] ECHCG ([1]; 20 g a.i./ha) [%] | Herbicidal effect against [%] ECHCG ([1]; 80 g a.i./ha) [%] | Herbicidal effect against [%] AVEFA ([2]; 20 g a.i./ha) [%] | Herbicidal effect against [%] AVEFA ([2]; 80 g a.i./ha) [%] | Herbicidal effect against [%] SETVI ([3]; 20 g a.i./ha) [%] | Herbicidal effect against [%] SETVI ([3]; 80 g a.i./ha) [%] | Herbicidal effect against [%] LOLMU ([4]; 20 g a.i./ha) [%] | Herbicidal effect against [%] LOLMU ([4]; 80 g a.i./ha) [%] | Herbicidal effect against [%] ALOMY ([5]; 20 g a.i./ha) [%] | Herbicidal effect against [%] ALOMY ([5]; 80 g a.i./ha) [%] | Herbicidal effect against [%] ECHCG ([6]; 80 g a.i./ha) [%] | Herbicidal effect against [%] ECHCG ([6]; 320 g a.i./ha) [%] | Herbicidal effect against [%] AVEFA ([7]; 80 g a.i./ha) [%] | Herbicidal effect against [%] AVEFA ([7]; 320 g a.i./ha) [%] | Herbicidal effect against [%] SETVI ([9]; 80 g a.i./ha) [%] | Herbicidal effect against [%] SETVI ([9]; 320 g a.i./ha) [%] | Herbicidal effect against [%] LOLMU ([10]; 80 g a.i./ha) [%] | Herbicidal effect against [%] LOLMU ([10]; 320 g a.i./ha) [%] | Herbicidal effect against [%] ALOMY ([11]; 80 g a.i./ha) [%] | Herbicidal effect against [%] ALOMY ([11]; 320 g a.i./ha) [%] | other results
CC#Cc1cc(C)c(C2=C(O)C3(CCCC(OCCOC)C3)NC2=O)c(CC)c1 (stereo not drawn) [Example D8] | 100 | 100 | 100 | 100 | 100 | 100 | 100 | 100 | 100 | 100 | 100 | 100 | 100 | 100 | 100 | 100 | 100 | 100 | 100 | 100 | Herbicidal effect against [%] CYPES [8]: 100%
CC#Cc1cc(C)c(C2=C(O)C3(CCCC(OCCOC)C3)NC2=O)c(C)c1 (stereo not drawn) [Example D6] | 100 | 100 | 100 | 100 | 100 | 100 | 100 | 100 | 100 | 100 | 100 | 100 | 100 | 100 | 100 | 100 | 100 | 100 | 100 | 100 | Herbicidal effect against [%] POLCO [12]: 80%; Herbicidal effect against [%] AMARE ([13]; 20 g a.i./ha): 80%; Herbicidal effect against [%] AMARE ([13]; 80 g a.i./ha): 80%; Herbicidal effect against [%] CYPES [8]: 90%
CC#Cc1cc(CC)c(C2=C(OC(=O)OCC)C3(CCCC(OCC)C3)NC2=O)c(CC)c1 (single isomer, unassigned) [Example P4] | 100 | 100 |  | 100 | 100 | 100 | 100 | 100 |  | 100 | 100 | 100 | 100 | 100 | 100 | 100 | 100 | 100 | 100 | 100 | Herbicidal effect against [%] AMARE ([13]; 80 g a.i./ha): 80%
CC#Cc1cc(C)c(C2=C(OC(=O)OC)C3(CCCC(OCCOC)C3)NC2=O)c(C)c1 (stereo not drawn) [Example P16] | 100 | 100 | 100 | 100 | 100 | 100 | 100 | 100 | 100 | 100 | 100 | 100 | 100 | 100 |  |  | 100 | 100 | 100 | 100 | Herbicidal effect against [%] AMARE ([13]; 20 g a.i./ha): 80%; Herbicidal effect against [%] AMARE ([13]; 80 g a.i./ha): 80%
